Results taken from patent US11267852B2, “Cell lines for screening odorant and aroma receptors” (Firmenich SA, priority 2015, dated 2022).

Key:
OR1A1 = target: T1, OR1A1 (Homo sapiens, UniProt Q9P1Q5); experiment: cell-based odorant assay, cAMP increase (HTRF), OR1A1; settings: modified RTP1 HEK293T cell line compared to unmodified control cell line
T1 construct: expressed in transfected cells
T1 sequence (Q9P1Q5 1-309): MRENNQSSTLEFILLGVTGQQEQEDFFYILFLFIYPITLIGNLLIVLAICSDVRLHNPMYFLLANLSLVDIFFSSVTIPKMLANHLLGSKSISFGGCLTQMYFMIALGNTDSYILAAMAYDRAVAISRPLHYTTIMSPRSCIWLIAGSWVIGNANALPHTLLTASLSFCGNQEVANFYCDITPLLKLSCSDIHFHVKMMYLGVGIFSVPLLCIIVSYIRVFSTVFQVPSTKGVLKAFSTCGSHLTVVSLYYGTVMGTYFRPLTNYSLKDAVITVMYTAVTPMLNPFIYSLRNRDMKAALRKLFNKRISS

Olfr740 = experiment: cell-based odorant assay, cAMP increase (HTRF), Olfr740; set-up: species or system mouse
Method: (§1) Functional dose-response experiments were performed in order to evaluate the level of functional enhancement of activity of odorant receptors in the modified cell line. Odorant receptors were modified at their N-terminus with short polypeptide sequences or tags [e.g. Flag (SEQ ID NO: 15), Rho (SEQ ID NO: 17; 20 first amino acids of the bovine rhodopsin receptor), or Lucy (SEQ ID NO: 19)], transiently expressed in WT or modified HEK293T cells, and stimulated with odorant compounds to determine the activity of the receptors. FIGS. 7 and 8) Using a cell-based odorant binding assay, the activity of Olfr741 (SEQ ID NO: 4) and Olfr742 (SEQ ID NO: 6) to indole was tested in the engineered RTP1 cell line and compared to HEK293T lacking RTP1 protein expression. Odorant receptors were transfected into both cell lines and exposed to increasing concentrations of indole. Odorant-induced activity was detected by measuring the level of cAMP increase in the cytosol using an HTRF based kit (CisBio, cAMP dynamic 2 kit, cat #62AM4PEJ). FIGS. 9 and 10) Using the same cell-based odorant binding assay, the activity of Olfr96 (SEQ ID NO: 8) and OR11A1 (SEQ ID NO: 10) to vulcanolide was tested in the engineered RTP1 expressing cell line and compared to HEK293T lacking RTP1 protein expression. The activity of Olfr740 (SEQ ID NO: 12) to indole was also tested in both cellular backgrounds. […]

Olfr742 = experiment: cell-based odorant assay, cAMP increase (HTRF), Olfr742; set-up: species or system mouse
Method: as §1

Olfr741 = experiment: cell-based odorant assay, cAMP increase (HTRF), Olfr741; set-up: species or system mouse
Method: as §1

Olfr96 = experiment: cell-based odorant assay, cAMP increase (HTRF), Olfr96; set-up: species or system mouse
Method: as §1

OR11A1 = target: T2, OR11A1 (Homo sapiens, UniProt Q9GZK7); experiment: cell-based odorant assay, cAMP increase (HTRF), OR11A1
T2 construct: expressed in transfected cells
T2 sequence (Q9GZK7 1-315): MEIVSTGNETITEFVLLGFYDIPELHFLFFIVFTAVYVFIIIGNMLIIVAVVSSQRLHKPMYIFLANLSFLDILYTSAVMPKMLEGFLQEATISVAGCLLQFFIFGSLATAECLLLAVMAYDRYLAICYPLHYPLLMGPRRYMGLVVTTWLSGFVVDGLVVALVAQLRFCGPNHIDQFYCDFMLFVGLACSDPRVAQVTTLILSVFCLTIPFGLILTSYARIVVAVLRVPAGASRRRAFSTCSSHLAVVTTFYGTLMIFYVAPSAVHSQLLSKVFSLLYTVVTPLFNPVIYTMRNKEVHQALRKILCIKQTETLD
Method: as §1

[1] = modified RTP1 HEK293T cell line, increasing concentrations
[2] = unmodified control HEK293T lacking RTP1 expression

In the case of `C=C(C)C1CC=C(C)C(=O)C1` (stereo not drawn) [carvone-(−)], the “receptor activity (cAMP increase), dose-response” value (shortened to “receptor activity (cAMP increase)”) (OR1A1) is reported as “more potent dose-dependent increase of receptor activity”.
For `c1ccc2[nH]ccc2c1` [indole], the “receptor activity (cAMP increase)” value (Olfr740; [1]) was “dose-dependent increase of receptor activity”, the “receptor activity (cAMP increase)” value (Olfr740; [2]) was “not in the unmodified control cell line” and the “receptor activity (cAMP increase)” value (Olfr742; [1]) was “dose-dependent increase of receptor activity”. The “receptor activity (cAMP increase)” value (Olfr742; [2]) was “not in the unmodified control cell line”, the “receptor activity (cAMP increase)” value (Olfr741; [1]) was “dose-dependent increase of receptor activity” and the “receptor activity (cAMP increase)” value (Olfr741; [2]) was “not in the unmodified control cell line”.
For `Cc1cc2c(cc1C=O)C(C)(C)[C@@H](C)[C@H](C)C2(C)C` [vulcanolide], the “receptor activity (cAMP increase)” value (Olfr96; [1]) was “dose-dependent increase of receptor activity”, the “receptor activity (cAMP increase)” value (Olfr96; [2]) was “not in the unmodified control cell line” and the “receptor activity (cAMP increase)” value (OR11A1; [1]) was “dose-dependent increase of receptor activity”. For the same molecule, the “receptor activity (cAMP increase)” value (OR11A1; [2]) was “not in the unmodified control cell line”.
